Measurements taken from ChEMBL document CHEMBL1156879, “Ganodermasides A and B, two novel anti-aging ergosterols from spores of a medicinal mushroom Ganoderma lucidum on yeast via UTH1 gene” (Bioorg Med Chem, 2010).
The source made the active and inactive calls. No cut-off for these calls is given here.

How the values were obtained:
Format in all cases: functional, organism-based
Saccharomyces cerevisiae [1] = assay: Antiaging effect in Saccharomyces cerevisiae K6001 assessed as extension of replicative life span at 10 uM after 2 days
Saccharomyces cerevisiae [2] = assay: Effect on SOD1 gene expression in Saccharomyces cerevisiae K6001 at 10 uM by RT-PCR
Saccharomyces cerevisiae [3] = assay: Effect on SOD2 gene expression in Saccharomyces cerevisiae K6001 at 10 uM by RT-PCR
Saccharomyces cerevisiae [4] = assay: Effect on SIRT1 expression in Saccharomyces cerevisiae K6001 by SIRT1/Sir2 deacetylase fluorometric assay
Saccharomyces cerevisiae [5] = assay: Antiaging effect in Saccharomyces cerevisiae K6001 expressing uth1 mutant assessed as extension of replicative life span after 2 days
Saccharomyces cerevisiae [6] = assay: Antiaging effect in Saccharomyces cerevisiae K6001 expressing skn7 mutant assessed as extension of replicative life span after 2 days
Saccharomyces cerevisiae [7] = assay: Antiaging effect in Saccharomyces cerevisiae K6001 assessed as extension of replicative life span after 2 days

Activity (Saccharomyces cerevisiae [4]) | SMILES | Activity (Saccharomyces cerevisiae [1]) | Activity (Saccharomyces cerevisiae [2]) | Activity (Saccharomyces cerevisiae [3]) | Activity (Saccharomyces cerevisiae [5]) | Activity (Saccharomyces cerevisiae [6]) | Activity (Saccharomyces cerevisiae [7])
inactive | CC(C)[C@@H](C)/C=C/[C@@H](C)[C@H]1C[C@@H](O)C2=C3C=CC4=CC(=O)CC[C@]4(C)C3CC[C@@]21C (some centres undefined) | Active | inactive | inactive | inactive | inactive | –
inactive | CC(C)[C@@H](C)/C=C/[C@@H](C)[C@H]1C[C@H](O)C2=C3C=CC4=CC(=O)CC[C@]4(C)C3CC[C@@]21C (some centres undefined) | Active | inactive | inactive | inactive | inactive | –
– | Oc1ccc(/C=C/c2cc(O)cc(O)c2)cc1 | Active | – | – | – | – | Dose-dependent effect
